Consider 1 compound from EP0358508A2, “Novel immunosuppressant compound” (MERCK & CO. INC., priority 1988, dated 1990).

“Also recorded” adds a separate entry of the source.

The test system of data set [1] is mouse T lymphocytes stimulated with the combination of ionomycin plus PMA. In words: T-cell proliferation assay (ionomycin plus PMA induced T-cell stimulation, tritiated thymidine uptake). Type of data set: cell-based, C57B1/6 mice. From the text: The principle of this assay is to measure the proliferation of mouse T lymphocytes stimulated with the combination of ionomycin plus PMA. A positive sample in this assay will inhibit T-cell proliferation, as indicated by reduced tritiated thymidine uptake.
Spleens from C57B1/6 mice were taken under sterile conditions and gently dissociated in ice-cold RPMI 1640 culture medium (GIBCO, Grand Island, N.Y.) supplemented with 10% heat-inactivated fetal calf serum (GIBCO). Cells were pelleted by centrifugation at 1500 rpm for 8 minutes. Contaminating red cells were removed by treating the pellet with ammonium chloride lysing buffer (GIBCO) for 2 minutes at 4°C. […]
Purified T lymphocytes were resuspended at 2.5 x 10⁵ cells/ml in complete culture medium composed of RPMI 1640 medium with 10% heat-inactivated fetal calf serum, […] glutamine, 1 mM sodium pyruvate, 2 x 10⁻⁵ M 2-mercaptoethanol and 50 µg/ml gentamycin. […] The proliferation of T lymphocytes was assessed by measurement of tritiated thymidine incorporation. […] Radioactivity of filter discs corresponding to individual wells was measured by standard liquid scintillation counting methods (Beta counter). Mean counts per minute of replicate wells were calculated and the results expressed as percent inhibition of tritiated thymidine uptake (proliferation) as follows: [formula] […]

The nature of data set [2]: Physical characteristics: solubility. Type of data set: physicochemical. The conditions noted are these: solvent methanol; qualitative. An excerpt: White amorphous powder • 2. […] Molecular weight of 805, as determined by mass spectrometry consistent with a molecular ion at (m/z) 1093.6556 for the tetra-(trimethylsilyl) derivative and characteristic fragment ions at (m/z) 673 and 481.
White amorphous powder • 2. […] Molecular weight of 805, as determined by mass spectrometry consistent with a molecular ion at (m/z) 1021.6169 for the tri-(trimethylsilyl) derivative and characteristic fragment ions at (m/z) 675 and 483.

With `CCC[C@@H]1/C=C(\C)C[C@H](C)C[C@H](OC)[C@H]2O[C@@](O)(C(=O)C(=O)N3CCCC[C@H]3C(=O)O[C@H](/C(C)=C/[C@@H]3CC[C@@H](O)[C@H](OC)C3)[C@H](C)[C@@H](O)CC1=O)[C@H](C)C[C@@H]2OC` [Tsukubamycin B], the “inhibition of T-cell proliferation after addition of IL-2” value in data set [1] (50 units/ml of IL-2 (recombinant human IL-2) added at the initiation of culture) is recorded as “reversed”. Further, in data set [1] (purified mouse spleen T lymphocytes, ionomycin 250 ng/ml plus PMA 10 ng/ml, 44 hours culture plus 4 hours pulse, various concentrations, no numbers given), the “inhibition of T-cell activation / % inhibition of tritiated thymidine uptake (proliferation)” value is recorded as “indicated its immunosuppressant properties; also recorded: positive inhibition of T-cell activation”. In addition, the Solubility result in data set [2] is “Solubility in methanol”.
